Results on 3 compounds are retold here after PMC3914206.

For assay [1], the target named is T1, panel of 442 kinases (Homo sapiens, UniProt Q16566).
T1 construct: purchased KINOMEscan
T1 sequence (Q16566 1-473): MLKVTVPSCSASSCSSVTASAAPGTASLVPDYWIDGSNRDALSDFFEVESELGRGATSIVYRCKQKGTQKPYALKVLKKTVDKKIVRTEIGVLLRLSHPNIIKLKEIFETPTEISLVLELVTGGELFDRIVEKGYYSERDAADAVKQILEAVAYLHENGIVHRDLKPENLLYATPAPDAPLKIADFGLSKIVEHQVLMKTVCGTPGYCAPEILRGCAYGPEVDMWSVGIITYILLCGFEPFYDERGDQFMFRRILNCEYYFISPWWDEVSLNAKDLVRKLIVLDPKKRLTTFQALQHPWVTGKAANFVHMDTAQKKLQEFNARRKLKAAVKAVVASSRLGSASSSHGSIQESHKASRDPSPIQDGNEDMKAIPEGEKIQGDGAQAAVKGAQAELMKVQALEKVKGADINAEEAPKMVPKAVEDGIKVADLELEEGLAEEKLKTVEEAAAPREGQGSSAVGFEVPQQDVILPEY
In kind it is binding. The note with it: Compound Concentration 10 µM. The source says:
(§1) We assessed the selectivity of members of this scaffold using the KINOMEscan methodology across a near comprehensive panel of 442 kinases [[18,27]].

Assay [2] addresses T2, panel of 442 kinases (Homo sapiens, UniProt Q15208).
T2 construct: purchased KINOMEscan
The class given is binding. The conditions noted are these: Compound Concentration 10 µM.
Text: as §1

T2 sequence (Q15208 whole entry): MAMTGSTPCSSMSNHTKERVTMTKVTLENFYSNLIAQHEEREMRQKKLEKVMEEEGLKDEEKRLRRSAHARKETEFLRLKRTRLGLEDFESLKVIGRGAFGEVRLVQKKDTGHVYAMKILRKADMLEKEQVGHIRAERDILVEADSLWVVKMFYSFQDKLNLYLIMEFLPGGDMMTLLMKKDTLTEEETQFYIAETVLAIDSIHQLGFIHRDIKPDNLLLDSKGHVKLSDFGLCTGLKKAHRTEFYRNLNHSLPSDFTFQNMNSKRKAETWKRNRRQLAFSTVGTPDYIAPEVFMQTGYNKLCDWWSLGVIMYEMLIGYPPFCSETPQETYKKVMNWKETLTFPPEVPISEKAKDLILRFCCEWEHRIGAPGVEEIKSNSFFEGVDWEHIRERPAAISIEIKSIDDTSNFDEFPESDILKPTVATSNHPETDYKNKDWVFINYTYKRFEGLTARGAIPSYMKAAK

As for `COc1cc(C(=O)N2CCC(N3CCN(C)CC3)CC2)ccc1Nc1ncc2c(n1)N(C1CCCC1)c1ccccc1C(=O)N2C` [Compound 25, 11-cyclopentyl-2-((2-methoxy-4-(4-(4-methylpiperazin-1-yl)piperidine-1-carbonyl)phenyl)amino)-5-methyl-5H-benzo[e]pyrimido[5,4-b][1,4]diazepin-6(11H)-one], on panel of 442 kinases [1], the “KINOMEscan: CAMK4” value is 82. Moreover, the “KINOMEscan: NDR1” value on panel of 442 kinases [2] was found to be 100.
On to `COc1cc(C(=O)N2CCC(N3CCN(C)CC3)CC2)ccc1Nc1ncc2c(n1)N(C)c1ccccc1C(=O)N2C` [15 (LRRK2-IN-1)], for which, at panel of 442 kinases [1], the “KINOMEscan: CAMK4” value is 79. Further, on panel of 442 kinases [2], the “KINOMEscan: NDR1” value is recorded as 96.
For the compound `CCOc1cc(C(=O)N2CCC(N3CCN(C)CC3)CC2)ccc1Nc1ncc2c(n1)N(C1CCCC1)c1ccccc1C(=O)N2C` [Compound 26], at panel of 442 kinases [1], the “KINOMEscan: CAMK4” value stood at 100. For the same compound, the “KINOMEscan: NDR1” value on panel of 442 kinases [2] is 100.
